Where two headings read alike, the source gives them in different places.
Molecular target: T1, β-secretase(BACE) (Homo sapiens, UniProt P56817)
T1 construct: purchased Panvera
Assay: BACE FS1% Inhibition Assay
Format: biochemical
Conditions: FS1 substrate
Summary of the method: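 Percent inhibition at each tested concentration, referenced to enzyme-free blank and vehicle-only positive control. Reaction: compound and BACE (4 μg/mL working stock) mixed 20 min at room temperature before FS1 substrate (300 μg/mL working stock), then 1 h at room temperature.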

[1] = 3 μM test compound, read-out: % Inhibition (FS) 3 μM

T1 sequence (P56817 46-501): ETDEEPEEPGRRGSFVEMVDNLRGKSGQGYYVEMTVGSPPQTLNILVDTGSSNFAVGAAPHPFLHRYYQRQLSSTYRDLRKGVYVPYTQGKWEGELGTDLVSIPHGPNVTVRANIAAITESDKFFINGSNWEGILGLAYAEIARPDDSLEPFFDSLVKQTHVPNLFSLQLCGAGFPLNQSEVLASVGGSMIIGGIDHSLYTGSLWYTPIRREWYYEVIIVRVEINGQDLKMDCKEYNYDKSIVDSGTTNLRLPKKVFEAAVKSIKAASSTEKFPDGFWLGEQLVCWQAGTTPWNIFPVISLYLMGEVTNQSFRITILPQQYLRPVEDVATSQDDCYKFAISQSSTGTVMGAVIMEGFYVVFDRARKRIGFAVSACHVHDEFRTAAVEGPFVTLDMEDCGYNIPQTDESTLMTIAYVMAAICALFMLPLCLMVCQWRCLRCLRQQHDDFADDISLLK

| Compound | % Inhibition (FS) 0.3 μM (0.3 μM test compound) | % Inhibition (FS) 1 μM (1 μM test compound) | % Inhibition (FS) 3 μM (3 μM test compound) | other results |
| --- | --- | --- | --- | --- |
| Cc1cc(C(=O)NCCN2Cc3cc(-c4cccc(C(F)(F)F)c4)ccc3N=C2N)c(C)o1 [Compound 590] | <30% | <30% | <30% | – |
| CN(C(=O)c1ccc2c(c1)C(N1Cc3cc(Oc4ccccc4)ccc3N=C1N)c1ccccc1-2)C1CCCCC1 (stereo not drawn) [Compound 125, 9-(2-Amino-6-phenoxy-4H-quinazolin-3-yl)-9H-fluorene-2-carboxylic acid cyclohexyl-methyl-amide] | – | – | – | inhibition at 3 µM [1]: 42%; inhibition at 10 µM (10 μM test compound, read-out: % Inhibition (FS) 10 μM): 80% |
| NC1=Nc2ccc(-c3ccccc3F)cc2CN1CCNC(=O)C1CCC1 [Compound 642] | 37% | 63% | 96% | – |
| CC(=O)N1CCC(C(=O)NCCN2Cc3cc(-c4ccccc4C)ccc3N=C2N)CC1 [Compound 695] | – | – | – | % Inhibition (FS) (0.3 μM test compound): <30%; % Inhibition (FS) (1 μM test compound): <30%; % Inhibition (FS) (3 μM test compound): 54% |
| CCCC(=O)NCCN1Cc2cc(-c3cncnc3)ccc2N=C1N [Compound 569] | <30% | <30% | <30% | – |
| CCCC(=O)NCCN1Cc2cc(Br)ccc2N=C1N [Compound 808] | – | – | – | inhibition at 0.3 µM (0.3 μM test compound, read-out: % Inhibition (FS)): < 30%; inhibition at 1 µM (1 μM test compound, read-out: % Inhibition (FS)): < 30%; inhibition at 3 µM (3 μM test compound, read-out: % Inhibition (FS)): < 30% |
| CCCC(CCC)C(=O)N1CCCCC(N2Cc3cc(Oc4ccccc4)ccc3N=C2N)C1 (stereo not drawn) [Compound 552] | <30% | <30% | 36% | – |
| CC(C)C(CNC(=O)C12CC3CC(CC(C3)C1)C2)N1Cc2cc(Oc3ccccc3)ccc2N=C1N (stereo not drawn) [Compound 562] | 106% | 118% | 128% | – |
| Cc1cccc(Nc2ccc3c(c2)CN(Cc2cccc(C(=O)N(C)C4CCCCC4)c2)C(N)=N3)c1 [Compound 435] | <30% | <30% | 85% | – |
| CC(C)(C)OC(=O)N1CCC(N2Cc3cc(Oc4ccccc4)ccc3N=C2N)CC1 [Compound 499, 4-(2-Amino-6-phenoxy-4H-quinazolin-3-yl)-piperidine-1-carboxylic acid tert-butyl ester] | – | – | – | inhibition at 0.3 µM (0.3 μM test compound, read-out: % Inhibition (FS) 0.3 μM): < 30%; inhibition at 1 µM (1 μM test compound, read-out: % Inhibition (FS) 1 μM): < 30%; inhibition at 3 µM [1]: < 30% |
| CN1CCC(N(C)C(=O)c2cccc(C(c3ccccc3)N3Cc4cc(Oc5ccccc5)ccc4N=C3N)c2)CC1 (stereo not drawn) [Compound 316] | <30% | <30% | <30% | – |
| NC1=Nc2ccc(-c3ccc4ccccc4c3)cc2CN1CCNC(=O)C12CC3CC(CC(C3)C1)C2 [Compound 665] | – | – | – | % Inhibition (FS) (0.3 μM test compound): 35%; % Inhibition (FS) (1 μM test compound): <30%; % Inhibition (FS) (3 μM test compound): <30% |
| CC(C)C(CC(=O)NC1C2CC3CC(C2)CC1C3)N1Cc2cc(Oc3ccccc3)ccc2N=C1N (stereo not drawn) [Compound 402] | <30% | 53% | 99% | – |
| Cc1ccccc1-c1ccc2c(c1)CN(CCNC(=O)C1CCC(C(F)(F)F)CC1)C(N)=N2 (stereo not drawn) [Compound 694] | – | – | – | % Inhibition (FS) (0.3 μM test compound): <30%; % Inhibition (FS) (1 μM test compound): <30%; % Inhibition (FS) (3 μM test compound): 84% |
| CC(C)C(CC(=O)N(C(C)C)C1CCCCC1)N1Cc2cc(Oc3ccccc3)ccc2N=C1N (stereo not drawn) [Compound 202] | <30% | <30% | <30% | – |
| CC(CC(=O)NCCN1Cc2cc(-c3ccccc3)ccc2N=C1N)C(F)(F)F (stereo not drawn) [Compound 685] | – | – | – | % Inhibition (FS) (0.3 μM test compound): 50%; % Inhibition (FS) (1 μM test compound): 90%; % Inhibition (FS) (3 μM test compound): 101% |
| CN(C(=O)c1cccc(CN2Cc3cc(Oc4ccccc4CC(N)=O)ccc3N=C2N)c1)C1CCCCC1 [Compound 235] | <30% | 46% | <30% | – |
| CN(C(=O)CCC(C1CCCCC1)N1Cc2cc(Oc3ccccc3)ccc2N=C1N)C1CCC(O)CC1 (stereo not drawn) [Compound 639] | <30% | <30% | 48% | – |
| CCOc1cccc(Nc2ccc3c(c2)CN(Cc2cccc(C(=O)N(C)C4CCCCC4)c2)C(N)=N3)c1 [Compound 440] | <30% | 35% | 72% | – |
| CCCC(CCCC(=O)NC1CCCCC1)N1Cc2cc(Oc3ccccc3)ccc2N=C1N (stereo not drawn) [Compound 91] | – | – | 68% | % Inhibition (FS) 10 μM (10 μM test compound): 117% |
| CC(C)(C)C(=O)NCCN1Cc2cc(-c3ccccc3Cl)ccc2N=C1N [Compound 653] | 46% | 82% | 101% | – |
| CCCC(CCC)C(=O)N1CCC(CN2Cc3cc(Oc4ccccc4)ccc3N=C2N)CC1 [Compound 526] | <30% | 36% | 98% | – |

| Compound | % Inhibition (FS) 0.3 μM (0.3 μM test compound) | % Inhibition (FS) 1 μM (1 μM test compound) | % Inhibition (FS) 3 μM (3 μM test compound) | other results |
| --- | --- | --- | --- | --- |
| CC(C)(C)OC(=O)Nc1cccc(CN2Cc3cc(Oc4ccccc4)ccc3N=C2N)c1 [Compound 224] | <30% | <30% | <30% | – |
| C[C@@H](CNC(=O)C1CCCCC1)N1Cc2cc(Oc3ccccc3)ccc2N=C1N [Compound 486] | <30% | <30% | <30% | – |
| NC1=Nc2ccc(-c3ccccc3)cc2CN1CCNC(=O)Cc1ccccc1 [Compound 595] | 32% | 70% | 104% | – |
| CC1CCC(N(C(=O)c2cccc(CN3Cc4cc(Oc5ccccc5)ccc4N=C3N)c2)C2CCC(C)CC2)CC1 (stereo not drawn) [Compound 187] | <30% | <30% | 39% | – |
| COC(=O)[C@H]1CC[C@H](NC(=O)CC[C@@H](C2CCOCC2)N2Cc3cc(Oc4ccccc4)ccc3N=C2N)CC1 [Compound 747] | – | – | – | % Inhibition (FS) (0.3 μM test compound): 41%; % Inhibition (FS) (1 μM test compound): 74%; % Inhibition (FS) (3 μM test compound): 104% |
| COc1ccccc1Sc1ccc2c(c1)CN(Cc1cccc(C(=O)N(C)C3CCCCC3)c1)C(N)=N2 [Compound 412] | <30% | <30% | 49% | – |
| NC1=Nc2ccc(Oc3ccccc3)cc2CN1CCCCNC(=O)C1CCCCC1 [Compound 115] | – | – | 40% | % Inhibition (FS) 10 μM (10 μM test compound): 105% |
| COc1ccccc1-c1ccc2c(c1)CN(CCNC(=O)C1CCOCC1)C(N)=N2 [Compound 697] | – | – | – | % Inhibition (FS) (0.3 μM test compound): <30%; % Inhibition (FS) (1 μM test compound): <30%; % Inhibition (FS) (3 μM test compound): 63% |
| CN(C(=O)c1cccc(CN2Cc3cc(Nc4ccc5c(c4)OCO5)ccc3N=C2N)c1)C1CCCCC1 [Compound 441] | <30% | 29% | 48% | – |
| CCCCCC(CCC(=O)NC1CCCCCC1)N1Cc2cc(Oc3ccccc3)ccc2N=C1N (stereo not drawn) [Compound 150] | <30% | <30% | 90% | – |
| Cc1cc(C(=O)NCCN2Cc3cc(-c4cccc(CO)c4)ccc3N=C2N)c(C)o1 [Compound 589] | <30% | <30% | <30% | – |
| NC1=Nc2ccc(Oc3ccccc3)cc2CN1Cc1cccc(NC(=O)C2CCCCC2)c1 [Compound 286] | <30% | <30% | 36% | – |
| CS(=O)(=O)Nc1ccccc1-c1ccc2c(c1)CN(CCNC(=O)C1CCCCC1)C(N)=N2 [Compound 539] | <30% | <30% | <30% | – |
| CC(C)[C@@H](CNC(=O)C12CC3CC(CC(C3)C1)C2)N1Cc2cc(Oc3ccccc3)ccc2N=C1N [Compound 553] | <30% | <30% | 49% | – |
| Cc1ccccc1-c1ccc2c(c1)CN(CCNC(=O)C13CC4CC(CC(C4)C1)C3)C(N)=N2 [Compound 658] | <30% | 62% | 100% | – |
| CN(C(=O)c1cccc(CN2Cc3cc(Sc4cccc5ccccc45)ccc3N=C2N)c1)C1CCCCC1 [Compound 414] | <30% | <30% | 27% | – |
| CC(=O)Nc1ccc(Sc2ccc3c(c2)CN(Cc2cccc(C(=O)N(C)C4CCCCC4)c2)C(N)=N3)cc1 [Compound 417] | <30% | <30% | 78% | – |
| CN(C(=O)CCC(C)(C)N1Cc2cc(Oc3ccccc3)ccc2N=C1N)C1CCCCC1 [Compound 738] | – | – | – | % Inhibition (FS) (0.3 μM test compound): 14%; % Inhibition (FS) (1 μM test compound): 28%; % Inhibition (FS) (3 μM test compound): 61% |
| CCCCC(CC)C(=O)NCCN1Cc2cc(-c3ccccc3F)ccc2N=C1N (stereo not drawn) [Compound 648] | 39% | 74% | 104% | – |
| CCOC(=O)C1CCC(N(C)C(=O)CCC(C2CCCCC2)N2Cc3cc(Oc4ccccc4)ccc3N=C2N)CC1 (stereo not drawn) [Compound 737] | – | – | – | % Inhibition (FS) (0.3 μM test compound, 0.3 µM): 22%; % Inhibition (FS) (1 μM test compound, 1 µM): 34%; % Inhibition (FS) (3 μM test compound, 3 µM): 97% |
| NC1=Nc2ccc(Oc3ccccc3)cc2CN1Cc1cccc(C(=O)N2CCCCC2)c1 [Compound 443] | <30% | 39% | 67% | – |
| CCc1ccccc1-c1ccc2c(c1)CN(Cc1cccc(C(=O)N(C)C3CCCCC3)c1)C(N)=N2 [Compound 320] | −31% | <30% | <30% | – |
